Data on six compounds can be found in patent US4264729A, “Method and reagent for detecting cancerigenic and anticancerous substances” (priority 1978, dated 1981).

For experiment [1], the system named is DNA C (matricial DNA separated from cancerous tissues). Put plainly: synthesis in vitro of DNA on a matrix of cancerous DNA (DNA C) with DNA-polymerase, radioactive acidoprecipitable DNA measured. It is filed as biochemical. Particulars: for replication of DNA-C separated from cancerous breast tissues: breast tissue DNA, FIG. 6; for replication of DNA taken on cancerous tissues such as lung or liver tissues: lung or liver tissue DNA; for replication of DNA-C (amount of radioactive DNA 3H synthetised): as a function of the amount of substance in the reactional medium (0 to 100 μg in 0.15 ml), 10 minutes at 36° C., FIG. 1, 3, 4. The text has this: (§1) According to the invention, there is provided a method in which there is observed, in measuring the radioactive acidoprecipitable DNA, the synthesis of DNA on a matrix of DNA separated from sound tissues on the one hand, and on a matrix of DNA separated from cancerous tissues on the other hand, in a medium comprising four desoxyribonucleoside-5'-triphosphates, one of which is radioactive, and one enzyme DNA-polymerase, with the substance to be tested and without it.
(§2) For carrying into effect the test, which in itself is very short, it is necessary to hold several preparations, previously and carefully proven, of matricial DNA separated from sound tissues (check tissue, hereinafter referenced to as DNA T) and of matricial DNA separated from cancerous tissues (hereinafter referenced to as DNA C).
The DNA C preparations are obtained by using as raw material various cancerous tissues or tumours taken on a human or animal organ, such as breast, lung, ovary, neuro-carcinome, ascites, etc. It is also possible to use cultures of cancerous cells such as KB or Hela cells, etc.
(§3) For each test, it is necessary to hold at least four couples of matricial DNA of different origins, each couple being formed by an DNA T preparation and an DNA C preparation originating from the same organ, of the same animal kind. For example, there is used at least four couples selected among the following: DNA T and DNA C separated from lung tissue; DNA T and DNA C separated from breast tissue; DNA T and DNA C separated from ovary tissue; DNA T of primary cells of monkey kidney (RS), or of "Vero" cells, or of "SIRC" cells in culture and DNA C of KB cells or Hela cells, or L cells in culture.
(§4) For separating DNA, either from sound tissues or from cancerous tissues, there is used a modified conventional method of separation and purification (J. Narmur, J. Mol. Biol. 3 208, 1961). When a cancerous tissue or a tumour is used, the neighbouring sound or questionable tissues must first be discarded, and reciprocally, the sound tissues must be free from any questionable tissues.
(§5) Immediately after exeresis, the tissue is either frozen at -20° C., or finely crushed in a kneading machine, in the presence of a buffer 2 SSC (containing 17.4 g of NaCl and 10.7 g of trisodic citrate for 1 liter of sterile distilled water) in a sterile aqueous solution (1 to 3 ml of buffer according to the volume of tissue) and of a final concentration of 0.2% in laurylsulphate (by adding an aqueous mother solution of laurylsulphate at 20%).
(§6) In order to get rid of the proteins and to keep the DNA, several extractions are made in the presence of buffer 2 SSC and phenol (solution containing 10% of water), followed by extractions with chloroform and by centrifugations according to the conventional technique of separation and purification of DNA. The DNA present in the aqueous phases is precipitated in 96° alcohol, picked up with a glass rod, solved in a little volume of 1 SSC, then treated by the pancreatic ribonucleases and T1, what requires a whole supplementary cycle of repurification with phenol, then with chloroform. The DNA is dialysed against a solution of 2 SSC (24 hours at 4° C.), dosed by absorption in ultraviolet and stored frozen at -20° C., several months if necessary. Before use, the DNA is once more dialysed during several hours against sterile distilled water.
(§7) The DNA is characterized by its absorbance in ultraviolet at 260 nm and 280 nm. The typical ratio 260/280 varies from 2.0 to 2.1 according to the preparation. The content of the ARN in proteins varies from 0.3 to 0.6% and the content in polyribonucleotids having resisted the action of nucleases and contaminating the DNA is between 1 and 3%. The RNA (ribonucleic acid) can be eliminated by degradation by KOH 0.3 M (final concentration) during 16 hours at 36° C., and the DNA is then dialysed and stored as hereinabove mentioned. […]

For experiment [2], the system named is DNA T (matricial DNA separated from sound tissues). Put plainly: synthesis in vitro of DNA on a matrix of check DNA (DNA T) with DNA-polymerase, radioactive acidoprecipitable DNA measured. Type of experiment: biochemical. The note with it: for replication of DNA-T separated from sound breast tissues: breast tissue DNA, FIG. 6; for replication of DNA taken on check tissues such as lung or liver tissues: lung or liver tissue DNA; for replication of DNA-T (amount of radioactive DNA 3H synthetised): as a function of the amount of substance in the reactional medium (0 to 100 μg in 0.15 ml), 10 minutes at 36° C., FIG. 1, 3, 4.
Source text: as §1, §2
The preparations of DNA T are obtained in the same manner by using as raw material sound tissues separated from various human or animal organs, or from sound cells cultivated "in vitro" in a suitable medium.
as §3, §4, §5, §6, §7

Setting [3] is: between 0,005 and 0,01 ml of acridine orange (0.1 mg/ml) in the medium, FIG. 2.

Consider `C[C@]12CC[C@@H]3c4ccc(O)cc4CC[C@H]3[C@@H]1CC[C@@H]2O` [estradiol], for which, in experiment [1], the “replication of DNA-C separated from cancerous breast tissues” value was “very strongly” and the “replication of DNA taken on cancerous tissues such as lung or liver tissues” value is given as “no effect”. For the same compound, in experiment [2], the “replication of DNA-T separated from sound breast tissues” value is reported as “stimulate weakly” and the “replication of DNA taken on check tissues such as lung or liver tissues” value is on record as “no effect”.

For the compound `O=C(O)c1cccnc1` [Nicotinic acid], the “replication of DNA-C (amount of radioactive DNA 3H synthetised)” value in experiment [1] is “neutral”. Further, the “replication of DNA-T (amount of radioactive DNA 3H synthetised)” value in experiment [2] is on record as “neutral”.

Turning to `CN(C)c1ccc2cc3ccc(N(C)C)cc3nc2c1` [acridine orange], the “replication of DNA-C” value in experiment [1] (0.005 ml acridine orange (0.1 mg/ml) in the medium, compared with DNA-T, FIG. 2) is “stimulation of DNA-C replication is clearly stronger than that of DNA-T”. Besides, the “synthesis of DNA-C” value in experiment [1] (setting [3]) is reported as “slows down the synthesis”. For the same compound, in experiment [1] (high concentrations), the “replication of cancerous DNA” value is “toxic and inhibit”. Further, the “synthesis of DNA-T” value in experiment [2] (setting [3]) was “slows down the synthesis”. Further, in experiment [2] (high concentrations), the “replication of check DNA” value is “toxic and inhibit”.

Turning to `c1cc[n+]2c(c1)-c1cccc[n+]1CC2` [Diquat, ethylene-1,1-bipyridilium-2,2-dibromid], the “replication of DNA-C (amount of radioactive DNA 3H synthetised)” value in experiment [1] is “inhibition non selective”. In experiment [2], the “replication of DNA-T (amount of radioactive DNA 3H synthetised)” value was “inhibition non selective”.

With `C1CNCCN1` [piperazine], the “replication of DNA-C (amount of radioactive DNA 3H synthetised)” value in experiment [1] is given as “neutral”. Further, the “replication of DNA-T (amount of radioactive DNA 3H synthetised)” value in experiment [2] is “neutral”.

`C[C@]12CC[C@@H]3c4ccc(O)cc4CC[C@H]3[C@@H]1CCC2=O` [estrone]: in experiment [1], the “replication of DNA-C separated from cancerous breast tissues” value was “very strongly” and the “replication of DNA taken on cancerous tissues such as lung or liver tissues” value was “no effect”. In experiment [2], the “replication of DNA-T separated from sound breast tissues” value was “stimulate weakly” and the “replication of DNA taken on check tissues such as lung or liver tissues” value is recorded as “no effect”.
